Columns and labels:
[1] = Storage at 40° C./75% RH (XRPD, HPLC purity, colour); format: physicochemical; details: 4 weeks at 40° C./75% RH under ambient light conditions
[2] = test system: stress-induced accelerated colonic transit; test: Water avoidance stress (WAS) fecal pellet output, model of increased colonic transit; format: in vivo, rat
Method: Preliminary testing in the water avoidance stress model confirmed that there exists an association between stress and altered colonic motility. Fecal pellet output was measured by counting the total number of fecal pellets produced during 1 hour of WAS. Using the WAS model, the effect of MCI-225 was compared to the effects of ondansetron (5-HT3 antagonist) or nisoxetine (noradrenaline reuptake inhibitor—NARI) to affect fecal pellet output.
Adult male F-344 rats, supplied by Charles River Laboratories and weighing 270-350 g, were used to complete this study. The rats were housed 2 per cage under standard conditions. Following one to two weeks of acclimatization to the animal facility, the rats were brought to the laboratory and handled daily for another week to acclimatize them to laboratory conditions and to the research associate who performed the studies. All procedures used in this study were approved in accordance with facility standards.
All rats underwent sham stress (1-hour in stress chamber without water) for 2-4 consecutive days before undergoing WAS (sham was performed until rats produced 0-1 pellet per hour for 2 consecutive days). At the end of the 1-hour stress period, the fecal pellets were counted and recorded.
WAS causes an acceleration of colonic transit, which can be quantified by counting the number of fecal pellets, produced during the stress procedure. Rats were placed for 1-hour into a stress chamber onto a raised platform 7.5 cm×7.5 cm×9 cm (L×W×H) in the center of a stress chamber filled with room temperature water 8 cm in depth. The stress chamber was constructed from a rectangular plastic tub (40.2×60.2×31.2 cm).
Control drugs for this study were ondansetron and nisoxetine. Ondansetron was supplied from APIN Chemicals LTD. Nisoxetine was supplied by Tocris. MCI-225 was provided by Mitsubishi Pharma Corp. All drugs were dissolved in a vehicle of 100% propylene glycol (1,2-propanediol) by sonicating for a period of 10 minutes. […]
Statistical significance was assessed using one-way ANOVA followed by Tukey post-test. […]

small intestinal transit = test: Small Intestinal Transit Rodent Model (charcoal meal); format: in vivo, rat
Method: Following an overnight fast, rats were brought to the laboratory in their home cages and received an i.p. injection of one of the following: […] Control rats received no treatment. The treated rats were placed back in the home cages and after 30 min, were fed a 2 mL charcoal meal via an oral gavage. Small intestinal transit was measured following 15 min test-period. Each rat was placed briefly in a glass chamber with IsoFlo for anesthesia and sacrificed. The stomach and the small intestine were removed and the total length of the small intestine was measured. Transit was then measured as the distance that the charcoal meal had traveled along the small intestine and expressed as % of the total length. Animals were randomly assigned to experimental groups and experiments were performed as illustrated in Table 3. Ondansetron was supplied from APIN Chemicals LTD. […] MCI-225 was provided by Mitsubishi Pharma Corp. All drugs were dissolved in a vehicle of 100% propylene glycol (1,2-Propanediol) by sonicating for 10 min. Propylene glycol was obtained from Sigma Chemical Co. Ondansetron, a 5-HT3-receptor antagonist was dosed i.p. at 1, 5, and 10 mg/kg. […] All doses were delivered in a final volume of 200 μL. Animals in the vehicle control group received 200 μL of 100% Propylene glycol and animals in the normal control group were untreated. Adult male F-344 rats (230-330 g) were used in the study. The rats were housed 2 per cage under standard conditions. The animals were fed a standard rodent diet and food and water were provided “ad libitum”. Rats were allowed to acclimatize to the animal facility for one week prior to the transit experiments. […] The distance traveled by the charcoal meal was quantified as a percent of the small intestinal length, using the following equation: Transit(%)=cm traveled by meal/cm total small intestinal length×100 […] […] Differences between individual dose groups within treatments and comparisons between drug-treated and vehicle-treated groups were determined using an unpaired t test considering that when % is used as a relative unit, t-statistic is relevant. […]

cisplatin-induced emesis = test: Cisplatin-induced emesis in the ferret; format: in vivo, ferret (Mustela putario furo); details: 5 mg/kg and 10 mg/kg i.p.
Method: Adult male ferrets (Mustela putario furo) weighing 1200-1880 g were purchased from Triple F Farms (Sayre, Pa.) and housed in individual cages at standardized conditions (12:12 h light/dark cycle and 21-23° C.). Prior to the experiments, the ferrets were allowed a 7-10 day acclimatization period to the animal facility. The ferrets were fed a carnivore diet with free access to food and water throughout the course of the study. The use of the ferret model of emesis and the drug treatment were preapproved in accordance with facility standards. A cisplatin solution was prepared by adding preheated (70° C.) saline to cisplatin powder (Sigma-Aldrich Co.) and stirring or sonicating at 40° C. until dissolved. Following administration of the cisplatin and either MCI-225, ondansetron or vehicle alone, the occurrence of retching and vomiting was monitored for a period of 6 hours. Retching was defined as the number of forceful rhythmic contractions of the abdomen occurring with the animal in characteristic posture, but not resulting in the expulsion of upper gastrointestinal tract contents (Watson et al., British Journal of Pharmacology, 115(1): 84-94 (1994)). […] The latency of the retching or vomiting response and the number of episodes were recorded for each animal and summarized for each experimental group (Wright et al., Infect. Immun., 68(4): 2386-9 (2000)). […]

[3] = test system: acetic acid-induced colonic hypersensitivity; test: Visceromotor response to colorectal distension, acetic acid-induced colonic hypersensitivity; format: in vivo, rat
Method: A 10 min recovery was allowed between distensions.
Adult male rats were used in the study.
Ten minute recovery periods were allowed following each distension.
Statistical significance of the treatment groups was assessed using one-way ANOVA followed by Tukey post-test. […] (*) p<0.05, (**) p<0.01, (***) p<0.001

With “4-(2-fluorophenyl)-6-methyl-2-(piperazin-1-yl)thieno[2,3-d]pyrimidine hydrochloride [MCI-225]” the “colour of material surface after storage” value [1] was “gone yellow”.

For `CNCCC(Oc1ccccc1OC)c1ccccc1` (stereo not drawn) [Nisoxetine], the “WAS-induced fecal pellet output during 1 hour” value ([2]; rats, 3, 10 and 30 mg/kg i.p.) was “reduced by all doses”, the “fecal pellets produced during WAS compared to the vehicle treated group” value ([2]; rats, 10 and 30 mg/kg i.p.) was “significantly fewer” and the small intestinal transit (small intestinal transit; rats, 30 mg/kg i.p.) was “almost completely inhibited”. For the same compound, the small intestinal transit (small intestinal transit; rats, 3 or 10 mg/kg i.p.) was “tendency to decrease”.

In the case of `Cc1nccn1CC1CCc2c(c3ccccc3n2C)C1=O` (stereo not drawn) [Ondansetron], the “latency of the first emetic response following cisplatin treatment” value (cisplatin-induced emesis) was “increase in the latency”, the “number of emetic events induced by cisplatin” value (cisplatin-induced emesis) was “dose-dependently reduced” and the “stress-induced fecal pellet output during 1 hour of WAS” value ([2]; rats, 1, 5 and 10 mg/kg i.p.) was “dose-dependent inhibition”. For the same compound, the “responses to moderate (30 mmHg) and high (60 mmHg) intraluminal pressure” value ([3]; rats, 10 mg/kg i.p. (highest dose)) was “did not abolish the responses”, the “behavioral activity of the rats” value ([3]; rats, 1, 5 or 10 mg/kg i.p.) was “No significant changes” and the “number of abdominal contractions (visceromotor response to colorectal distension)” value ([3]; rats, 1, 5 or 10 mg/kg i.p., all distension pressures, vs vehicle) was “dose-dependent decrease”. The small intestinal transit (small intestinal transit; rats, 1, 5 or 10 mg/kg i.p.) was “significant reduction”.

— patent publication US20120202825A1, “Soluble Salts of Thieno [2,3-d] Pyrimidine Derivatives” (priority 2011, published 2012)
